≈ marks a conversion by molar mass, not a printed value.
Assays:
[1] = test system: PKB Ser473 phosphorylation in Rat1-myr-HA-p110 beta cells; test: Reverse protein array assay, PKB Ser473 phosphorylation in Rat1-myr-p110 beta cells; type: cell-based; conditions: 0.5 h, pAkt Ser473, 30 minutes incubation, read-out: p-PKB IC50
Method in brief: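 Cells: Rat1-myr-HA-p110 alpha/beta/delta, seeded ≥20 h. Lysis on ice 10 min; reverse-phase protein array, 4 lysate dilutions; fluorescence read, relative intensity.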

[2] = molecular target: T1, PI3K alpha (Homo sapiens, UniProt P42336); test: PI3K alpha kinase assay (Kinase-Glo luminescence); type: biochemical
T1 construct: p85(iSH2) fusion partner (see partner chain) (N); His tag (C); made in house; host or cells: baculovirus; Tn5 (Trichoplusia ni) or TiniPro insect cells
Method in brief: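 IC50 is taken from a four-parameter logistic fit of 8-point dilutions, with Kinase-Glo luminescence reporting residual ATP. Reactions ran 60 min at room temperature in TRIS pH 7.5 buffer with MgCl2, NaCl, CHAPS and DTT. Final levels were 10 nM enzyme, 1 μM ATP and 10 μg/mL PI.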

[3] = molecular target: T2, PI3K beta (Homo sapiens, UniProt P42338); test: PI3K beta kinase assay (Kinase-Glo luminescence); type: biochemical
T2 construct: for the full-length p110-b subunit are generated and fused by overlapping PCR; p85(iSH2) fusion partner (see partner chain) (N); His tag (C); made in house; host or cells: baculovirus; Tn5 (Trichoplusia ni) or TiniPro insect cells
Method in brief: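 Full-length p110β with a Gly-linked p85 iSH2 and a C-terminal His tag (BV949, 25 nM) was incubated with 10 μg/mL phosphatidylinositol and 1 μM ATP in 10 mM Tris pH 7.5, 3 mM MgCl2, 50 mM NaCl, 0.05% CHAPS, 1 mM DTT for 60 min at room temperature. Residual ATP was read by Kinase-Glo luminescence.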

[4] = Solubility at pH 6.8; type: physicochemical; conditions: pH 6.8, aqueous buffer, thermodynamic from solid; read-out: solubility
Method in brief: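 Solubility was measured at pH 6.8 following the cited Zhou et al. (2007) procedure.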

T1 sequence (P42336 with tags, fused parts or gaps limits assumed): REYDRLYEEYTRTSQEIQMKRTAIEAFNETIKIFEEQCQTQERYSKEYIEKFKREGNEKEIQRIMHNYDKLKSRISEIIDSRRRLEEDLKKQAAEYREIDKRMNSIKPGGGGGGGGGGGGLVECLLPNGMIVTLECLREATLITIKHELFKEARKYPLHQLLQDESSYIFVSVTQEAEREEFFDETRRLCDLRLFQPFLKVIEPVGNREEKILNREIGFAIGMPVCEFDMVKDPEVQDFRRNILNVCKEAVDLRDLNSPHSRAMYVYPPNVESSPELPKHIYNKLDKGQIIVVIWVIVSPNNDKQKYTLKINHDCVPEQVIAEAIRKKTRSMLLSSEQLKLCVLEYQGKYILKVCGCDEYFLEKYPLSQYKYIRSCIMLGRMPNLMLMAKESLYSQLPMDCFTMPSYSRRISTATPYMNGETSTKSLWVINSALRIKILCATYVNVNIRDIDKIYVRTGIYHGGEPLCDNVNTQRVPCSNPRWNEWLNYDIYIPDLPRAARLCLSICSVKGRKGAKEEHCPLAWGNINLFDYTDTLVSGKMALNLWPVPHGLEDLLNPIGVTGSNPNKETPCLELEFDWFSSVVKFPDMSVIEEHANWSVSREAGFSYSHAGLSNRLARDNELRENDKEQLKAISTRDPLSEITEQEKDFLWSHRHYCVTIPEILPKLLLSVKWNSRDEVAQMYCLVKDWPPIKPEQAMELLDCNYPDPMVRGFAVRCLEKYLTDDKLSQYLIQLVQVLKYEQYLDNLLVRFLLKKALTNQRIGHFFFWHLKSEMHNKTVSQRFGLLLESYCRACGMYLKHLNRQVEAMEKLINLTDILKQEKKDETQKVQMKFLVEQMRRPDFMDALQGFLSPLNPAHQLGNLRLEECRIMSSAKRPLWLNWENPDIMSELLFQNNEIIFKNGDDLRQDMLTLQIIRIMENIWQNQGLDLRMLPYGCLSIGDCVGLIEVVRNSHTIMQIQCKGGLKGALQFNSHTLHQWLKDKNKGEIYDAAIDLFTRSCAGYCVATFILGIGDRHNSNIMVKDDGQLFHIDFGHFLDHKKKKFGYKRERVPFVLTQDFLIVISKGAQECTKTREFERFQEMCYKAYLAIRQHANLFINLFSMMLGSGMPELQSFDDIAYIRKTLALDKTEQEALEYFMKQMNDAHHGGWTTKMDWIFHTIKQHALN
T2 sequence (P42338 with tags, fused parts or gaps limits assumed): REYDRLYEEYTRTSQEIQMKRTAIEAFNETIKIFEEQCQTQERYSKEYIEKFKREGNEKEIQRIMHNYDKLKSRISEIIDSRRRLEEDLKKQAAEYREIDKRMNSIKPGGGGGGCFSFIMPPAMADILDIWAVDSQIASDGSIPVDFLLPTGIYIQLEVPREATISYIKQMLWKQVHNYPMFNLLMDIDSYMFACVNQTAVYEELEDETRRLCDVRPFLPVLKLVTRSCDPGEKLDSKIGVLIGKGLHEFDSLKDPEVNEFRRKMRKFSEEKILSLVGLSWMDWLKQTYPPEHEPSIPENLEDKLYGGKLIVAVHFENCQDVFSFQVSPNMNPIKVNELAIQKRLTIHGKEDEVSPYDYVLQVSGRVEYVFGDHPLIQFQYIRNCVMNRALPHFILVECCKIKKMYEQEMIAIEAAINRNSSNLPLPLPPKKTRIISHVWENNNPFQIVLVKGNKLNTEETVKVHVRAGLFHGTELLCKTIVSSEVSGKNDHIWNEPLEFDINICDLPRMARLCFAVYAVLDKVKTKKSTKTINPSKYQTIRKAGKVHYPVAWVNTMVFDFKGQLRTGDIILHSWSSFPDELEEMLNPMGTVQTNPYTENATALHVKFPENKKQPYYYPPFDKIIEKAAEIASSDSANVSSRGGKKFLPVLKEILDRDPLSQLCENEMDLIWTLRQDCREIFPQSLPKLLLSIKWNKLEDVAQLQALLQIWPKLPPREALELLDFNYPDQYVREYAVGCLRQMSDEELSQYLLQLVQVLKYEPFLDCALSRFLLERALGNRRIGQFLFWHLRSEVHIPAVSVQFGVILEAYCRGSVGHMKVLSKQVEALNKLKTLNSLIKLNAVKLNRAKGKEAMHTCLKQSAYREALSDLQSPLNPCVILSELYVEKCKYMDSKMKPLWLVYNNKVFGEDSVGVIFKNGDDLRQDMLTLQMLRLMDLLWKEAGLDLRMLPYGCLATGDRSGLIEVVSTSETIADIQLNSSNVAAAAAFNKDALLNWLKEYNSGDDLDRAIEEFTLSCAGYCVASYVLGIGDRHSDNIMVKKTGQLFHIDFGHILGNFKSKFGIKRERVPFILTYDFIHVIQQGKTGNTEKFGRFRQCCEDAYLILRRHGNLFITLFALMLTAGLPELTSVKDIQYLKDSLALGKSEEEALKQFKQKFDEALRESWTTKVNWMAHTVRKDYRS

SMILES: COc1ccc(-c2ccc3ncc4c(c3c2)n(-c2cc(C)nn2C)c(=O)n4C)cc1OC [Example 1.4, 8-(3,4-Dimethoxy-phenyl)-1-(2,5-dimethyl-2H-pyrazol-3-yl)-3-methyl-1,3-dihydro-imidazo[4,5-c]quinolin-2-one]
- IC50 [1]: 0.157 µM
- IC50 [2]: 0.039 µM
- IC50 [3]: 0.378 µM
- solubility [4]: 0.004 mg/mL (≈ 9.31 µM)

SMILES: COc1ccc(-c2ccc3ncc4c(c3c2)n(-c2cn(C(C)C)nc2C)c(=O)n4C)cc1OC [Example 1.5, 8-(3,4-Dimethoxy-phenyl)-1-(1-isopropyl-3-methyl-1H-pyrazol-4-yl)-3-methyl-1,3-dihydro-imidazo[4,5-c]quinolin-2-one]
- IC50 [1]: 0.023 µM
- IC50 [2]: 0.01 µM
- IC50 [3]: 0.101 µM
- solubility [4]: 0.005 mg/mL (≈ 10.9 µM)

SMILES: CCn1cc(-n2c(=O)n(C)c3cnc4ccc(-c5ccc(OC)c(OC)c5)cc4c32)c(C)n1 [Example 1.6, 8-(3,4-Dimethoxy-phenyl)-1-(1-ethyl-3-methyl-1H-pyrazol-4-yl)-3-methyl-1,3-dihydro-imidazo[4,5-c]quinolin-2-one]
- IC50 [1]: 0.022 µM
- IC50 [2]: 0.008 µM
- IC50 [3]: 0.043 µM
- solubility [4]: 0.065 mg/mL (≈ 147 µM)

SMILES: COc1ccc(-c2ccc3ncc4c(c3c2)n(-c2cn(C)nc2C)c(=O)n4C)cn1 [Example 2.5, 1-(1,3-Dimethyl-1H-pyrazol-4-yl)-8-(6-methoxy-pyridin-3-yl)-3-methyl-1,3-dihydro-imidazo[4,5-c]quinolin-2-one]
- IC50 [1]: 0.018 µM
- IC50 [2]: 0.017 µM
- IC50 [3]: 0.086 µM
- solubility [4]: 0.013 mg/mL (≈ 32.5 µM)

SMILES: CCn1cc(-n2c(=O)n(C)c3cnc4ccc(-c5ccc(OC)nc5)cc4c32)c(C)n1 [Example 2.7, 1-(1-Ethyl-3-methyl-1H-pyrazol-4-yl)-8-(6-methoxy-pyridin-3-yl)-3-methyl-1,3-dihydro-imidazo[4,5-c]quinolin-2-one]
- IC50 [1]: 0.038 µM
- IC50 [2]: 0.024 µM
- IC50 [3]: 0.091 µM
- solubility [4]: 0.003 mg/mL (≈ 7.24 µM)

SMILES: CCOc1ccc(-c2ccc3ncc4c(c3c2)n(-c2c(C)nn(C)c2C)c(=O)n4C)cn1 [Example 3.3, 8-(6-Ethoxy-pyridin-3-yl)-3-methyl-1-(1,3,5-trimethyl-1H-pyrazol-4-yl)-1,3-dihydro-imidazo[4,5-c]quinolin-2-one]
- IC50 [1]: 0.548 µM
- IC50 [2]: 0.146 µM
- IC50 [3]: 0.401 µM
- solubility [4]: 0.104 mg/mL (≈ 243 µM)

SMILES: CCOc1ccc(-c2ccc3ncc4c(c3c2)n(-c2cn(C(C)C)nc2C)c(=O)n4C)cn1 [Example 3.7, 8-(6-Ethoxy-pyridin-3-yl)-1-(1-isopropyl-3-methyl-1H-pyrazol-4-yl)-3-methyl-1,3-dihydro-imidazo[4,5-c]quinolin-2-one]
- IC50 [1]: 0.051 µM
- IC50 [2]: 0.061 µM
- IC50 [3]: 0.537 µM
- solubility [4]: 0.003 mg/mL (≈ 6.78 µM)

SMILES: CCOc1ccc(-c2ccc3ncc4c(c3c2)n(-c2cn(CC(=O)N(C)C)nc2C)c(=O)n4C)cn1 [Example 3.9, 2-{4-[8-(6-Ethoxy-pyridin-3-yl)-3-methyl-2-oxo-2,3-dihydro-imidazo[4,5-c]quinolin-1-yl]-3-methyl-pyrazol-1-yl}-N,N-dimethyl-acetamide]
- IC50 [1]: 0.019 µM
- IC50 [2]: 0.021 µM
- solubility [4]: 0.065 mg/mL (≈ 134 µM)

SMILES: Cc1nn(C)cc1-n1c(=O)n(C)c2cnc3ccc(-c4ccc(N(C)C)nc4)cc3c21 [Example 4.5, 8-(6-Dimethylamino-pyridin-3-yl)-1-(1,3-dimethyl-1H-pyrazol-4-yl)-3-methyl-1,3-dihydro-imidazo[4,5-c]quinolin-2-one]
- IC50 [1]: 0.017 µM
- IC50 [2]: 0.023 µM
- IC50 [3]: 0.213 µM
- solubility [4]: 0.007 mg/mL (≈ 16.9 µM)

SMILES: Cc1cc(-n2c(=O)n(C)c3cnc4ccc(-c5ccc(N(C)C)nc5)cc4c32)n(C)n1 [Example 4.6, 8-(6-Dimethylamino-pyridin-3-yl)-1-(2,5-dimethyl-2H-pyrazol-3-yl)-3-methyl-1,3-dihydro-imidazo[4,5-c]quinolin-2-one]
- IC50 [1]: 0.072 µM
- IC50 [2]: 0.048 µM
- IC50 [3]: 0.336 µM
- solubility [4]: 0.006 mg/mL (≈ 14.5 µM)

SMILES: Cc1nn(C)cc1-n1c(=O)n(C)c2cnc3ccc(-c4ccc(N5CCC5)nc4)cc3c21 [Example 5.1, 8-(6-Azetidin-1-yl-pyridin-3-yl)-1-(1,3-dimethyl-1H-pyrazol-4-yl)-3-methyl-1,3-dihydro-imidazo[4,5-c]quinolin-2-one]
- IC50 [1]: 0.008 µM
- IC50 [2]: 0.03 µM
- IC50 [3]: 0.787 µM
- solubility [4]: 0.003 mg/mL (≈ 7.05 µM)

SMILES: Cc1nn(C)cc1-n1c(=O)n(C)c2cnc3ccc(-c4ccc(C(N)=O)nc4)cc3c21 [Example 14, 5-[1-(1,3-Dimethyl-1H-pyrazol-4-yl)-3-methyl-2-oxo-2,3-dihydro-1H-imidazo[4,5-c]quinolin-8-yl]-pyridine-2-carboxylic acid amide]
- IC50 [1]: 0.018 µM
- IC50 [2]: 0.018 µM
- IC50 [3]: 0.13 µM
- solubility [4]: 0.053 mg/mL (≈ 128 µM)

SMILES: CNC(=O)c1ccc(-c2ccc3ncc4c(c3c2)n(-c2c(C)nn(C)c2C)c(=O)n4C)cn1 [Example 15.2, 5-[3-Methyl-2-oxo-1-(1,3,5-trimethyl-1H-pyrazo1-4-yl)-2,3-dihydro-1H-imidazo[4,5-c]quinolin-8-yl]-pyridine-2-carboxylic acid methylamide]
- IC50 [1]: 0.53 µM
- IC50 [2]: 0.249 µM
- IC50 [3]: 0.988 µM
- solubility [4]: 0.071 mg/mL (≈ 161 µM)

SMILES: Cc1nn(C)c(C)c1-n1c(=O)n(C)c2cnc3ccc(-c4ccc(CO)nc4)cc3c21 [Example 16.4, 8-(6-Hydroxymethyl-pyridin-3-yl)-3-methyl-1-(1,3,5-trimethyl-1H-pyrazol-4-yl)-1,3-dihydro-imidazo[4,5-c]quinolin-2-one]
- IC50 [2]: 0.184 µM
- IC50 [3]: 0.515 µM
- solubility [4]: > 0.414 mg/mL

SMILES: Cn1cc(-n2c(=O)n(C)c3cnc4ccc(-c5ccc(CO)nc5)cc4c32)c(Cl)n1 [Example 16.5, 1-(3-chloro-1-methyl-1H-pyrazol-4-yl)-8-(6-hydroxymethyl-pyridin-3-yl)-3-methyl-1,3-dihydro-imidazo[4,5-c]quinolin-2-one]
- IC50 [1]: 0.01 µM
- IC50 [2]: 0.003 µM
- IC50 [3]: 0.028 µM
- solubility [4]: 0.015 mg/mL (≈ 35.6 µM)

SMILES: Cn1nccc1-n1c(=O)n(C)c2cnc3ccc(-c4ccc(NCCO)nc4)cc3c21 [Example 21.1, 8-[6-(2-Hydroxy-ethylamino)-pyridin-3-yl]-3-methyl-1-(2-methyl-2H-pyrazol-3-yl)-1,3-dihydro-imidazo[4,5-c]quinolin-2-one]
- IC50 [1]: 0.173 µM
- IC50 [2]: 0.272 µM
- IC50 [3]: 0.946 µM
- solubility [4]: > 0.415 mg/mL

SMILES: Cc1cncc(-c2ccc3ncc4c(c3c2)n(-c2cn(C)nc2C)c(=O)n4C)c1 [Example 24, 1-(1,3-Dimethyl-1H-pyrazol-4-yl)-3-methyl-8-(5-methyl-pyridin-3-yl)-1,3-dihydro-imidazo[4,5-c]quinolin-2-one]
- IC50 [1]: 0.124 µM
- IC50 [2]: 0.01 µM
- IC50 [3]: 0.026 µM
- solubility [4]: 0.025 mg/mL (≈ 65 µM)

SMILES: Cc1nn(C)cc1-n1c(=O)n(C)c2cnc3ccc(-c4ccc(-n5cccn5)cc4)cc3c21 [Example 51.1, 1-(1,3-Dimethyl-1H-pyrazol-4-yl)-3-methyl-8-(4-pyrazol-1-yl-phenyl)-1,3-dihydro-imidazo[4,5-c]quinolin-2-one]
- IC50 [1]: < 0.005 µM
- IC50 [2]: 0.023 µM
- solubility [4]: 0.005 mg/mL (≈ 11.5 µM)

SMILES: CCOc1ncc(-c2ccc3ncc4c(c3c2)n(-c2cn(C)nc2C)c(=O)n4C)cc1NC(C)=O [Example 65, N-{5-[1-(1,3-Dimethyl-1H-pyrazol-4-yl)-3-methyl-2-oxo-2,3-dihydro-1H-imidazo[4,5-c]quinolin-8-yl]-2-ethoxy-pyridin-3-yl}-acetamide]
- IC50 [1]: 0.043 µM
- IC50 [2]: 0.46 µM
- solubility [4]: 0.031 mg/mL (≈ 65.7 µM)

SMILES: Cc1nn(C)cc1-n1c(=O)n(C)c2cnc3ccc(-c4ccc(OCCCO)nc4)cc3c21 [Example 108, 1-(1,3-Dimethyl-1H-pyrazol-4-yl)-8-[6-(3-hydroxy-propoxy)-pyridin-3-yl]-3-methyl-1,3-dihydro-imidazo[4,5-c]quinolin-2-one]
- IC50 [1]: 0.128 µM
- IC50 [2]: 0.132 µM
- solubility [4]: 0.032 mg/mL (≈ 72 µM)

SMILES: CCOCc1ncc(-c2ccc3ncc4c(c3c2)n(-c2cn(C)nc2C)c(=O)n4C)cc1OC [Example 196.2, 1-(1,3-Dimethyl-1H-pyrazol-4-yl)-8-(6-ethoxymethyl-5-methoxy-pyridin-3-yl)-3-methyl-1,3-dihydro-imidazo[4,5-c]quinolin-2-one]
- IC50 [1]: 0.108 µM
- IC50 [2]: 0.175 µM
- solubility [4]: > 0.459 mg/mL

SMILES: CO[C@@H]1CCN(c2ccc(-c3ccc4ncc5c(c4c3)n(-c3cn(C)nc3C)c(=O)n5C)cn2)C1 [Example 213.1, 1-(1,3-Dimethyl-1H-pyrazol-4-yl)-8-[6-((R)-3-methoxy-pyrrolidin-1-yl)-pyridin-3-yl]-3-methyl-1,3-dihydro-imidazo[4,5-c]quinolin-2-one]
- IC50 [1]: 0.342 µM
- IC50 [2]: 0.462 µM
- solubility [4]: 0.217 mg/mL (≈ 462 µM)

SMILES: Cc1nn(CC(=O)N2CCC2)cc1-n1c(=O)n(C)c2cnc3ccc(-c4cnc(N5CCCC5)nc4)cc3c21 [Example 247.2, 1-[1-(2-Azetidin-1-yl-2-oxo-ethyl)-3-methyl-1H-pyrazol-4-yl]-3-methyl-8-(2-pyrrolidin-1-yl-pyrimidin-5-yl)-1,3-dihydro-imidazo[4,5-c]quinolin-2-one]
- IC50 [1]: 0.087 µM
- IC50 [2]: 0.038 µM
- solubility [4]: 0.056 mg/mL (≈ 107 µM)

From patent publication US20140005163A1 (NOVARTIS AG, priority 2010, published 2014)
